The target in assay [1] is T1, MELK (Homo sapiens, UniProt Q14680).
T1 construct: purchased Reaction Biology Corporation
The experiment in a line: HotSpot kinase assay, MELK. Type of assay: biochemical. As to conditions: HotSpot radiometric 33P ATP assay, 25° C., 120 min. As to the method: (§1) In vitro profiling of the MELK, MELK (T460M) kinase panel was performed at Reaction Biology Corporation using the “HotSpot” assay platform. In vitro profiling of the FLT3, FLT3 mutant forms; FLT3 (D835Y), FLT3 (F594R595insR), FLT3 (F594R595insREY), FLT3 (ITD), FLT3 (ITD)-NPOS, FLT3 (ITD)-W51 and FLT3 (R595_E596insEY) kinase panel is performed in the same manner.
(§2) Briefly, specific kinase/substrate pairs along with required cofactors were prepared in reaction buffer; 20 mM Hepes (pH 7.5), 10 mM MgCl2, 1 mM EGTA, 0.02% Brij35, 0.02 mg/mL BSA, 0.1 mM Na3VO4, 2 mM DTT, 1% DMSO. Compounds were delivered into the reaction, followed ˜20 min later by addition of a mixture of ATP (Sigma) and ^33P ATP (PerkinElmer) to a final concentration of […]. Reactions were carried out at 25° C. for 120 min, followed by spotting of the reactions onto P81 ion exchange filter paper (Whatman). Unbound phosphate was removed by extensive washing of filters in 0.75% phosphoric acid. […] IC50 values and curve fits were obtained using Prism (GraphPad Software).

For assay [2], the target named is T2, FLT3 (Homo sapiens, UniProt P36888).
T2 construct: purchased Reaction Biology Corporation
T2 sequence (P36888 27-993): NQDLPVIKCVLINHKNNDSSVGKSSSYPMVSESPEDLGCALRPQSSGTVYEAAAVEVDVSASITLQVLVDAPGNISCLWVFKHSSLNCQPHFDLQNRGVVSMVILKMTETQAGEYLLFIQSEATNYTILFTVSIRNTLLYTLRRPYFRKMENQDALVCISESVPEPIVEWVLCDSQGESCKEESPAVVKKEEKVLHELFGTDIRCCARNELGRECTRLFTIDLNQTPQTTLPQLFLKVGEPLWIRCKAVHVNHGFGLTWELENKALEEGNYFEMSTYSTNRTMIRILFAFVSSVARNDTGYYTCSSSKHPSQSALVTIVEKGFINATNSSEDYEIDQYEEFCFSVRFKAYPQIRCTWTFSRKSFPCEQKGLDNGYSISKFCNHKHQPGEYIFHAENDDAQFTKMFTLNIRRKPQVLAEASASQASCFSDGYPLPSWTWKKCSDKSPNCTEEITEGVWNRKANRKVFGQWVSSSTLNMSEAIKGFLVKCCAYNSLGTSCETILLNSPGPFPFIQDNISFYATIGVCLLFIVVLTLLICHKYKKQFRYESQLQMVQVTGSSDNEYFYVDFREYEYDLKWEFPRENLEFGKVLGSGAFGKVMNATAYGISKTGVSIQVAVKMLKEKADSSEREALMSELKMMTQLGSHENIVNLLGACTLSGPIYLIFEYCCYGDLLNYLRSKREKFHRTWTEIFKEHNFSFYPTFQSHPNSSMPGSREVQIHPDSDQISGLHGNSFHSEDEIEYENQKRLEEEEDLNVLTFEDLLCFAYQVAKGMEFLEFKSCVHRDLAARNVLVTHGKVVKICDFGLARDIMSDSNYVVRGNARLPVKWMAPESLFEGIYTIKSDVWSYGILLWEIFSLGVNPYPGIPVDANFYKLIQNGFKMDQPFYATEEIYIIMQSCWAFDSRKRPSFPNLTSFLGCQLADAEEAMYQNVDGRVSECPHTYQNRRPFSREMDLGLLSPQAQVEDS
The experiment in a line: HotSpot kinase assay, FLT3. Type of assay: biochemical. Particulars: HotSpot radiometric 33P ATP assay, 25° C., 120 min. As to the method:
as §1, §2

By IC50 is commonly meant the concentration at which inhibition is half-maximal.

T1 sequence (Q14680 whole entry): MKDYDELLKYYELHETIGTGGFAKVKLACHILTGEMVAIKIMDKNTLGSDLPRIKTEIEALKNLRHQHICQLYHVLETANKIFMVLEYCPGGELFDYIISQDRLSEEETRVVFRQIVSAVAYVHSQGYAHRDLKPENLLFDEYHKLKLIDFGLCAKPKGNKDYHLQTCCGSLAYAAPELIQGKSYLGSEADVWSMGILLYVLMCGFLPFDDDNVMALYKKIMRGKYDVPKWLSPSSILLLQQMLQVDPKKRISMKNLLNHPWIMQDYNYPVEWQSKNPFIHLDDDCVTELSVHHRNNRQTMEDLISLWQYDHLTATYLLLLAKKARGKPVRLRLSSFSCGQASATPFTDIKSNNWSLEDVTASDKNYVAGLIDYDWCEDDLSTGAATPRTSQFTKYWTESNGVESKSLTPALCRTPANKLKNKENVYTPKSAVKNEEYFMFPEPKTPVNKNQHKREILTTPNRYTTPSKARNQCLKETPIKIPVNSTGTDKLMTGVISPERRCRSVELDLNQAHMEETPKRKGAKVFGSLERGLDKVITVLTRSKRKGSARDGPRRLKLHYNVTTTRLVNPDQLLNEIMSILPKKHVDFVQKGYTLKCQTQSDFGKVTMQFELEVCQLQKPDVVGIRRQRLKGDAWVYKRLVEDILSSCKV

On to `Fc1ccccc1-n1cc(-c2ncncc2OCC2CCNCC2)cn1` [Compound I-23, 4-(1-(2-fluorophenyl)-1H-pyrazol-4-yl)-5-(piperidin-4-ylmethoxy)pyrim-idine], for which the IC50 in assay [1] and in assay [2] was less than 200 nM throughout.

As to `CCS(=O)(=O)c1ccc(-n2cc(-c3ncncc3OC[C@H]3CC[C@@H](N)CC3)cn2)cc1` [Compound I-34, (1s,4s)-4-(((4-(1-(4-(ethylsulfonyl)phenyl)-1H-pyrazol-4-yl)pyrimidin-5-yl)oxy)methyl)cyclo-hexan-1-amine], the 50% inhibitory concentration (IC50) is 200 to 1000 nM in assay [1] and less than 200 nM in assay [2].

With `COc1ccc(-n2cc(-c3ncncc3OC[C@H]3CC[C@@H](N)CC3)cn2)cc1F` [Compound I-22, (1s,4s)-4-(((4-(1-(3-fluoro-4-methoxyphenyl)-1H-pyrazol-4-yl)pyrimidin-5-yl)oxy)methyl)cyclo-hexan-1-amine], the IC50 in assay [1] and in assay [2] was less than 200 nM in each case.

Turning to `N#Cc1ccccc1-n1cc(-c2ncncc2OC[C@H]2CC[C@@H](N)CC2)cn1` [Compound I-4, 2-(4-(5-(((1s,4s)-4-aminocyclohexyl)meth-oxy)pyrimidin-4-yl)-1H-pyrazol-1-yl)benzonitrile], the IC50 in assay [1] is 200 to 1000 nM; in assay [2], less than 200 nM.

As to `c1ccc(-n2cc(-c3ncncc3OCC3CCNCC3)cn2)cc1` [Compound I-28, 4-(1-phenyl-1H-pyrazol-4-yl)-5-(piperidin-4-ylmethoxy)pyrim-idine], the IC50 in assay [1] and in assay [2] was 200 to 1000 nM in each case.

In the case of `Fc1cccc(F)c1-n1cc(-c2ncncc2OCC2CCNCC2)cn1` [Compound I-30, 4-(1-(2,6-difluorophenyl)-1H-pyrazol-4-yl)-5-(piperidin-4-ylmethoxy)pyrim-idine], the IC50 in assay [1] and in assay [2] was 200 to 1000 nM in each case.

`N[C@H]1CC[C@@H](COc2cncnc2-c2cnn(-c3ccccc3F)c2)CC1` [Compound I-25, (1s,4s)-4-(((4-(1-(2-fluorophenyl)-1H-pyrazol-4-yl)pyrimidin-5-yl)oxy)methyl)cyclo-hexan-1-amine]: the IC50 in assay [1] and in assay [2] was less than 200 nM in each case.

Take `N[C@H]1CC[C@@H](CNc2cncnc2-c2cnn(-c3ccccc3F)c2)CC1` [Compound I-11, N-(((1s,4s)-4-aminocyclohexyl)meth-yl)-4-(1-(2-fluorophenyl)-1H-pyrazol-4-yl)pyrimidin-5-amine]: the IC50 is greater than 1000 nM in assay [1] and 200 to 1000 nM in assay [2].

As for `CCS(=O)(=O)c1ccc(-n2cc(-c3ncncc3OC[C@H]3CC[C@@H](N)CC3)cn2)c(F)c1` [Compound I-35, (1s,4s)-4-(((4-(1-(4-(ethylsulfonyl)-2-fluorophenyl)-1H-pyrazol-4-yl)pyrimidin-5-yl)oxy)methyl)cyclo-hexan-1-amine], the IC50 in assay [1] and in assay [2] was 200 to 1000 nM throughout.

Take `CC(C)N[C@H]1CC[C@@H](COc2cncnc2-c2cnn(-c3ccccc3F)c2)CC1` [Compound I-15, (1s,4s)-4-(((4-(1-(2-fluorophenyl)-1H-pyrazol-4-yl)pyrimidin-5-yl)oxy)methyl)-N-isopropylcyclohexan-1-amine]: the IC50 in assay [1] was 200 to 1000 nM; in assay [2], less than 200 nM.

For the compound `CC(C)N1CCC(COc2cncnc2-c2cnn(-c3ccccc3F)c2)CC1` [Compound I-16, 4-(1-(2-fluorophenyl)-1H-pyrazol-4-yl)-5-((1-isopropylpiperidin-4-yl)methoxy)pyrim-idine], the IC50 in assay [1] and in assay [2] was greater than 1000 nM throughout.
